Test results published in the NIST ThermoML archive (doi:10.1016/j.jct.2014.03.021).
± gives the expanded uncertainty stated by the source.

Assay: xn = mol fraction of the nth substance listed
Conditions: 101 kPa, Liquid; for electrical conductivity: Alternating current cell with electrodes; for speed of sound: Frequency=3 MHz, Sing-around technique in a fixed-path interferometer; for mass density: Vibrating tube method

## C[C@H](O)C(=O)[O-].C[N+](C)(C)CCO + O
293.15 K, x1 = 0.0258
  electrical conductivity: 3 ± 0.18 S/m
  speed of sound: 1660.5 ± 2.3 m/s
  mass density: 1036.96 ± 0.43 kg/m3
293.15 K, x1 = 0.0511
  electrical conductivity: 2.99 ± 0.18 S/m
  speed of sound: 1783.4 ± 2.2 m/s
  mass density: 1063.09 ± 0.41 kg/m3
293.15 K, x1 = 0.074
  electrical conductivity: 2.55 ± 0.15 S/m
  speed of sound: 1872.8 ± 1.8 m/s
  mass density: 1083.32 ± 0.32 kg/m3
293.15 K, x1 = 0.1027
  electrical conductivity: 1.91 ± 0.12 S/m
  speed of sound: 1930.6 ± 1.6 m/s
  mass density: 1098.55 ± 0.25 kg/m3
293.15 K, x1 = 0.1965
  electrical conductivity: 0.806 ± 0.048 S/m
  speed of sound: 1987.8 ± 1.7 m/s
  mass density: 1122.77 ± 0.41 kg/m3
293.15 K, x1 = 0.2957
  electrical conductivity: 0.344 ± 0.021 S/m
  speed of sound: 1985.2 ± 2.1 m/s
  mass density: 1133.96 ± 0.76 kg/m3
293.15 K, x1 = 0.5347
  electrical conductivity: 0.079 ± 0.005 S/m
  speed of sound: 1955.9 ± 3.1 m/s
  mass density: 1140.95 ± 2.1 kg/m3
293.15 K, x1 = 0.6044
  electrical conductivity: 0.059 ± 0.004 S/m
  speed of sound: 1952.1 ± 3.4 m/s
  mass density: 1141.68 ± 2.7 kg/m3
293.15 K, x1 = 0.6931
  electrical conductivity: 0.037 ± 0.002 S/m
  speed of sound: 1942.5 ± 3.8 m/s
  mass density: 1141.39 ± 3.5 kg/m3
293.15 K, x1 = 0.798
  electrical conductivity: 0.018 ± 0.001 S/m
293.15 K, x1 = 0.8996
  electrical conductivity: 0.01 ± 0.001 S/m
  speed of sound: 1938.8 ± 4.7 m/s
  mass density: 1142.96 ± 5.8 kg/m3
293.15 K, x1 = 0.1443
  speed of sound: 1988.4 ± 1.6 m/s
  mass density: 1111.86 ± 0.29 kg/m3
293.15 K, x1 = 0.2705
  speed of sound: 1989.4 ± 2 m/s
  mass density: 1132.07 ± 0.66 kg/m3
293.15 K, x1 = 0.3897
  speed of sound: 1975.3 ± 2.5 m/s
  mass density: 1138.61 ± 1.2 kg/m3
293.15 K, x1 = 0.7565
  speed of sound: 1943.3 ± 4 m/s
  mass density: 1141.84 ± 4.1 kg/m3
293.15 K, x1 = 0.8375
  speed of sound: 1942.6 ± 4.4 m/s
  mass density: 1142.39 ± 5 kg/m3
293.15 K, x1 = 0.94
  speed of sound: 1945.2 ± 4.9 m/s
  mass density: 1143.25 ± 6.3 kg/m3
293.15 K, x1 = 0.9611
  speed of sound: 1944.8 ± 5 m/s
  mass density: 1143.37 ± 6.6 kg/m3
298.15 K, x1 = 0.0258
  electrical conductivity: 3.35 ± 0.2 S/m
  speed of sound: 1665.3 ± 2.2 m/s
  mass density: 1035.09 ± 0.42 kg/m3
298.15 K, x1 = 0.0511
  electrical conductivity: 3.42 ± 0.2 S/m
  speed of sound: 1781.5 ± 2.1 m/s
  mass density: 1060.72 ± 0.4 kg/m3
298.15 K, x1 = 0.074
  electrical conductivity: 2.85 ± 0.17 S/m
  speed of sound: 1866 ± 1.8 m/s
  mass density: 1080.6 ± 0.31 kg/m3
298.15 K, x1 = 0.1027
  electrical conductivity: 2.29 ± 0.14 S/m
  speed of sound: 1920.6 ± 1.6 m/s
  mass density: 1095.58 ± 0.25 kg/m3
298.15 K, x1 = 0.1965
  electrical conductivity: 1.01 ± 0.061 S/m
  speed of sound: 1974.6 ± 1.7 m/s
  mass density: 1119.53 ± 0.41 kg/m3
298.15 K, x1 = 0.2957
  electrical conductivity: 0.405 ± 0.024 S/m
  speed of sound: 1971.5 ± 2.1 m/s
  mass density: 1130.7 ± 0.75 kg/m3
298.15 K, x1 = 0.5347
  electrical conductivity: 0.108 ± 0.007 S/m
  speed of sound: 1941.6 ± 3.1 m/s
  mass density: 1137.68 ± 2.1 kg/m3
298.15 K, x1 = 0.6044
  electrical conductivity: 0.089 ± 0.005 S/m
  speed of sound: 1937.4 ± 3.4 m/s
  mass density: 1138.43 ± 2.7 kg/m3
298.15 K, x1 = 0.6931
  electrical conductivity: 0.046 ± 0.003 S/m
  speed of sound: 1927.3 ± 3.8 m/s
  mass density: 1138.13 ± 3.4 kg/m3
298.15 K, x1 = 0.798
  electrical conductivity: 0.029 ± 0.002 S/m
298.15 K, x1 = 0.8996
  electrical conductivity: 0.017 ± 0.001 S/m
  speed of sound: 1922.9 ± 4.7 m/s
  mass density: 1139.75 ± 5.7 kg/m3
298.15 K, x1 = 0.1443
  speed of sound: 1968.2 ± 1.6 m/s
  mass density: 1108.71 ± 0.28 kg/m3
298.15 K, x1 = 0.2705
  speed of sound: 1970.9 ± 2 m/s
  mass density: 1128.8 ± 0.65 kg/m3
298.15 K, x1 = 0.3897
  speed of sound: 1957.2 ± 2.5 m/s
  mass density: 1135.35 ± 1.2 kg/m3
298.15 K, x1 = 0.7565
  speed of sound: 1923.3 ± 4 m/s
  mass density: 1138.58 ± 4.1 kg/m3
298.15 K, x1 = 0.8375
  speed of sound: 1922.5 ± 4.4 m/s
  mass density: 1139.15 ± 5 kg/m3
298.15 K, x1 = 0.94
  speed of sound: 1921.7 ± 4.9 m/s
  mass density: 1140.05 ± 6.2 kg/m3
298.15 K, x1 = 0.9611
  speed of sound: 1919.6 ± 5 m/s
  mass density: 1140.19 ± 6.5 kg/m3
303.15 K, x1 = 0.0258
  electrical conductivity: 3.68 ± 0.22 S/m
  speed of sound: 1669 ± 2.2 m/s
  mass density: 1033.07 ± 0.42 kg/m3
303.15 K, x1 = 0.0511
  electrical conductivity: 3.86 ± 0.23 S/m
  speed of sound: 1779.1 ± 2.1 m/s
  mass density: 1058.28 ± 0.4 kg/m3
303.15 K, x1 = 0.074
  electrical conductivity: 3.23 ± 0.19 S/m
  speed of sound: 1858.9 ± 1.7 m/s
  mass density: 1077.82 ± 0.3 kg/m3
303.15 K, x1 = 0.1027
  electrical conductivity: 2.57 ± 0.15 S/m
  speed of sound: 1910.5 ± 1.6 m/s
  mass density: 1092.58 ± 0.25 kg/m3
303.15 K, x1 = 0.1965
  electrical conductivity: 1.19 ± 0.071 S/m
  speed of sound: 1961.5 ± 1.7 m/s
  mass density: 1116.28 ± 0.4 kg/m3
303.15 K, x1 = 0.2957
  electrical conductivity: 0.497 ± 0.03 S/m
  speed of sound: 1957.9 ± 2.1 m/s
  mass density: 1127.45 ± 0.75 kg/m3
303.15 K, x1 = 0.5347
  electrical conductivity: 0.145 ± 0.009 S/m
  speed of sound: 1927.8 ± 3.1 m/s
  mass density: 1134.46 ± 2.1 kg/m3
303.15 K, x1 = 0.6044
  electrical conductivity: 0.106 ± 0.006 S/m
  speed of sound: 1923.5 ± 3.4 m/s
  mass density: 1135.19 ± 2.6 kg/m3
303.15 K, x1 = 0.6931
  electrical conductivity: 0.059 ± 0.004 S/m
  speed of sound: 1912.9 ± 3.8 m/s
  mass density: 1134.84 ± 3.4 kg/m3
303.15 K, x1 = 0.798
  electrical conductivity: 0.047 ± 0.003 S/m
303.15 K, x1 = 0.8996
  electrical conductivity: 0.042 ± 0.003 S/m
  speed of sound: 1908.1 ± 4.7 m/s
  mass density: 1136.57 ± 5.7 kg/m3
303.15 K, x1 = 0.1443
  speed of sound: 1954.1 ± 1.6 m/s
  mass density: 1105.56 ± 0.28 kg/m3
303.15 K, x1 = 0.2705
  speed of sound: 1958 ± 2 m/s
  mass density: 1125.54 ± 0.65 kg/m3
303.15 K, x1 = 0.3897
  speed of sound: 1944.6 ± 2.5 m/s
  mass density: 1132.15 ± 1.2 kg/m3
303.15 K, x1 = 0.7565
  speed of sound: 1909.5 ± 4 m/s
  mass density: 1135.3 ± 4 kg/m3
303.15 K, x1 = 0.8375
  speed of sound: 1908.6 ± 4.4 m/s
  mass density: 1135.92 ± 4.9 kg/m3
303.15 K, x1 = 0.94
  speed of sound: 1905.4 ± 4.9 m/s
  mass density: 1136.9 ± 6.2 kg/m3
303.15 K, x1 = 0.9611
  speed of sound: 1902.3 ± 5 m/s
  mass density: 1137.04 ± 6.5 kg/m3
308.15 K, x1 = 0.0258
  electrical conductivity: 4 ± 0.24 S/m
  speed of sound: 1671.7 ± 2.1 m/s
308.15 K, x1 = 0.0511
  electrical conductivity: 4.22 ± 0.25 S/m
  speed of sound: 1776 ± 2 m/s
308.15 K, x1 = 0.074
  electrical conductivity: 3.67 ± 0.22 S/m
  speed of sound: 1851.6 ± 1.7 m/s
308.15 K, x1 = 0.1027
  electrical conductivity: 2.95 ± 0.18 S/m
  speed of sound: 1900.3 ± 1.5 m/s
308.15 K, x1 = 0.1965
  electrical conductivity: 1.44 ± 0.087 S/m
  speed of sound: 1948.6 ± 1.7 m/s
308.15 K, x1 = 0.2957
  electrical conductivity: 0.622 ± 0.037 S/m
  speed of sound: 1944.6 ± 2.1 m/s
308.15 K, x1 = 0.5347
  electrical conductivity: 0.194 ± 0.012 S/m
  speed of sound: 1914.3 ± 3 m/s
308.15 K, x1 = 0.6044
  electrical conductivity: 0.138 ± 0.008 S/m
  speed of sound: 1909.9 ± 3.4 m/s
308.15 K, x1 = 0.6931
  electrical conductivity: 0.073 ± 0.004 S/m
308.15 K, x1 = 0.798
  electrical conductivity: 0.053 ± 0.003 S/m
308.15 K, x1 = 0.8996
  electrical conductivity: 0.056 ± 0.003 S/m
308.15 K, x1 = 0.1443
  speed of sound: 1940.6 ± 1.6 m/s
308.15 K, x1 = 0.2705
  speed of sound: 1945.2 ± 2 m/s
308.15 K, x1 = 0.3897
  speed of sound: 1932 ± 2.4 m/s
